Measurements: patent publication US11685766B2, “14-3-3 targeting peptides for cancer treatment” (Creighton University, priority 2019, dated 2023)
Peptide text beside a SMILES is read from it.

How the values were obtained:
[1] = target: T1, 14-3-3ε binding to CDC25A (Homo sapiens, UniProt P62258); assay: Co-immunoprecipitation / immunoblot of CDC25A bound to 14-3-3ε; format: cell-based; details: SCC12B.2 cells; for amount of CDC25A on immunoblots of immunoprecipitated 14-3-3ε: pS 30 μM, pT printed 2004, 48 hours, vs vehicle, P≤0.05
T1 construct: endogenous in cells; host or cells: SCC12B.2
T1 sequence (P62258 1-255): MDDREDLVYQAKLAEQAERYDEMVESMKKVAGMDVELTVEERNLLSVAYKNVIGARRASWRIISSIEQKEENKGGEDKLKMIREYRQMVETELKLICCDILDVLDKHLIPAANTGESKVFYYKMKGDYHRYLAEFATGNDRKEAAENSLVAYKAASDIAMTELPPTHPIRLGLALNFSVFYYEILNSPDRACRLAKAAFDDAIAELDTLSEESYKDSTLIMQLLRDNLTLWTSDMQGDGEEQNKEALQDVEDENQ
Experimental: Co-Immunoprecipitation (Co-IP) was performed using a Dynabeads Protein G Immunoprecipitation kit (Life Technologies, Carlsbad, Calif., USA). Beads were coupled to antibodies targeting 14-3-3ε (Fisher Scientific, Waltham, Mass., USA) or CDC25A (Santa Cruz Biotechnology, Dallas, Tex., USA) at a ratio of 7 μg of antibody for every 1 mg of beads according to the manufacturers protocol. SCC12B.2 cells were treated with vehicle (20 mM Tris buffer, pH 7.5) or fresh peptide (pS or pT) daily at the IC50 concentration for 48 hours in Opti-MEM I Reduced Serum Medium (Invitrogen) and collected by trypsinization. One hundred mg of cells were lysed in 1×IP buffer supplemented with 100 mM sodium chloride, 2 mM dithiothreitol, 1 mM magnesium chloride and protease/phosphatase inhibitors. Immunoprecipitation reactions were carried out using 1.5 mg of antibody-coupled beads incubated with 100 mg of cell lysate at 4° C. for 30 minutes. Negative controls were immunoprecipitation reactions using beads coupled to IgG isotype control antibody (rabbit), and whole lysate from immunoprecipitation input was loaded directly onto a gel was used as a positive control.
Protein was collected by either standard whole-cell lysis using ice-cold radioimmunoprecipitation assay (RIPA) lysis buffer supplemented with protease (Roche Life Scientific) and phosphatase inhibitors (NaF, Na3VO4) or by nuclear/cytosolic extraction using the NE-PER Nuclear and Cytoplasmic Protein Extraction Reagent Kit according to the manufacturer's protocol (Pierce, Rockford, Ill., USA). Tissue protein was extracted by using a tissue grinder to lyse cells in 100 μL of RIPA lysis buffer for every 1 mg of tissue. […] Protein concentration was assessed with the Bradford assay. […] Bands were detected using horseradish peroxidase-conjugated secondary antibodies (IgG mouse or rabbit) (Cell Signaling) and visualized using western lightning plus chemiluminescent reagent (MidSci, Valley Park, Mo., USA) and signal read on a Chemidoc XRS Molecular Imager (Bio-Rad Laboratories, Hercules, Calif., USA).

14-3-3ε protein = target: T2, 14-3-3ε protein (Homo sapiens, UniProt P62258); assay: Differential scanning fluorimetry (DSF) binding; details: 7 μM 14-3-3ε, ΔTm vs peptide concentration, Hill fit; read-out: Kd, binding affinity to 14-3-3ε protein (DSF)
T2 sequence (P62258 1-255): T1 sequence (P62258 1-255)
Experimental: Differential scanning fluorimetry (DSF) experiments were performed using BioRad CFX384 Real-Time qPCR attached with C1000 Touch Thermo Cycler in the FRET channel. 7 μM subunits of 14-3-3ε protein, ten molar excess of Sypro Orange and 20 mM Tris-HCl, pH 7.4 assay buffer were used in all the melting experiments. Stock solution of peptides were prepared by dissolving 1 mg of lyophilized peptides in 20 mM Tris, pH 7.4 buffer and 0.1 μM to 200 μM dilution series were prepared. Protein melting experiments were performed both in the absence and the presence of increasing concentration of peptides. 15 μL of each samples (in triplicate) were put into each well of a 384-well white PCR plate and sealed with optical adhesive sealer (BioRad MSB-1001) and any air-bubble in the solutions were removed by spinning the plate vertically with PCR plate spinner (Labnet MPS 1000) at 1000 RPM for 3 minutes. The temperature was increased from 25° C. to 95° C. at a rate of 0.7° C. per minute. Melting temperatures of each well were determined using the CFX Maestro software version 2.0 by plotting the first derivative of fluorescence signal against temperature. All the measurements were performed in triplicate and the deviations of melting temperatures (ΔTm) presented for each samples were calculated relatively to three control samples (7 μM 14-3-3ε in the absence of the peptide). Binding constant (Kd) for each peptide was calculated by plotting ΔTm against peptide concentration and data points were fitted with Hill's equation using GraphPad 9.0 software.

## CSCC[C@H](NC(=O)[C@H](CCCNC(=N)N)NC(=O)[C@@H]1CCCN1C(=O)[C@H](C)NC(=O)[C@H](COP(=O)(O)O)NC(=O)[C@H](CC(N)=O)NC(=O)[C@H](CCC(N)=O)NC(=O)[C@H](CCCNC(=N)N)NC(=O)[C@H](CCC(N)=O)NC(=O)[C@@H](NC(C)=O)[C@@H](C)O)C(=O)N[C@@H](CC(C)C)C(=O)N[C@@H](CO)C(=O)N[C@@H](CO)C(=O)N[C@@H](CC(N)=O)C(N)=O [pS, Ac-Thr-Gln-Arg-Gln-Asn-Ser-(PO3^2−)-Ala-Pro-Arg-Met-Leu-Ser-Ser-Asn-NH2] (HELM PEPTIDE1{[ac].T.Q.R.Q.N.[O=C([C@H](COP(=O)(O)O)N[*:1])[*:2]].A.P.R.M.L.S.S.N.[am]}$$$$V2.0)
[1]; 48 hours
  14-3-3ε precipitation, pS-treated compared to pT-treated samples: less 14-3-3ε precipitation
[1]
  amount of CDC25A on immunoblots of immunoprecipitated 14-3-3ε: decreases the amount of CDC25A
14-3-3ε protein
  Kd: 11.2 µM

## CC(=O)N[C@@H](CCCNC(=N)N)C(=O)N[C@H](C(=O)N[C@@H](CCCCN)C(=O)N[C@@H](CO)C(=O)N[C@@H](CCCNC(=N)N)C(=O)N[C@H](C(=O)N[C@@H](Cc1c[nH]c2ccccc12)C(=O)N[C@@H](C)C(=O)NCC(=O)N[C@@H](CCC(=O)O)C(=O)N[C@@H](CCCCN)C(=O)N[C@@H](CO)C(=O)N[C@@H](CCCCN)C(=O)N[C@@H](CCCNC(=N)N)C(N)=O)[C@@H](C)OP(=O)(O)O)[C@@H](C)O [pT, Ac-Arg-Thr-Lys-Ser-Arg-Thr(PO3^2−)-Trp-Ala-Gly-Glu-Lys-Ser-Lys-Arg-NH2] (HELM PEPTIDE1{[ac].R.T.K.S.R.[C[C@@H](OP(=O)(O)O)[C@H](N[*:1])C(=O)[*:2]].W.A.G.E.K.S.K.R.[am]}$$$$V2.0)
[1]
  amount of CDC25A on immunoblots of immunoprecipitated 14-3-3ε: decreases the amount of CDC25A
14-3-3ε protein
  Kd: 3.64 µM
